Test results from ChEMBL document CHEMBL5346870, “Discovery of novel 5-methoxybenzothiophene hydrazides as metabolically stable Clk1 inhibitors with high potency and unprecedented Clk1 isoenzyme selectivity” (Eur J Med Chem, 2023).
Blank lines part the entries; values can stand above or below the compound they belong to.

Assays:
[1] = target: T1, Dual specificity protein kinase CLK1 (Homo sapiens, UniProt P49759); details: dose 100.0 nM, time 15.0 min
Target sequence in this assay (P49759 whole entry, looked up): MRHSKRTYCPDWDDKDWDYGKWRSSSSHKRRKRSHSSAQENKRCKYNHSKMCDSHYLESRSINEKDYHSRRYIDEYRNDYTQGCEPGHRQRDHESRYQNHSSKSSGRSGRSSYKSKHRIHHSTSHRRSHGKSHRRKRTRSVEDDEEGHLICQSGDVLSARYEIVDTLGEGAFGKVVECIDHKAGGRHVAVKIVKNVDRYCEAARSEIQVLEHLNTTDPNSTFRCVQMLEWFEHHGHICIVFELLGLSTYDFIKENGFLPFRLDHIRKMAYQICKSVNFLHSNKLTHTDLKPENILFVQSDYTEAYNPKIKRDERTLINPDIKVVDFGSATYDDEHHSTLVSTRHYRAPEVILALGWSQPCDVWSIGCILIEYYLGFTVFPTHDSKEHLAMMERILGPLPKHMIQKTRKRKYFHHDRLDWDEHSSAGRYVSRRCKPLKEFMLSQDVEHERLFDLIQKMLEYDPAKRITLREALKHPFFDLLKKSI

[2] = target: T1, Dual specificity protein kinase CLK1; assay: Inhibition of human CLK1 using GRSRSRSRSRSRSRS as substrate incubated for 15 mins in presence of ATP by gamma32P-ATP based analysis
Target sequence in this assay (P49759 whole entry): as the sequence (P49759 whole entry, looked up) above

[3] = Selectivity index, ratio of inhibition of DYRK1A (unknown origin) to inhibition of CLK1 (unknown origin)
[4] = system: T-24; assay: Antiproliferative activity against human T24 cells assessed as cell growth inhibition incubated for 3 days by MTT assay; format: functional; details: T-24, 72 h, time 3 day
[5] = system: NHDF; assay: Cytotoxicity against HDF cells assessed as inhibition of cell growth at 15 uM incubated for 2 days by WST-1 analysis; format: toxicity, cell-based; details: human, 48 h, time 2 day
[6] = system: T-24; assay: Antiproliferative activity against human T24 cells assessed as cell growth inhibition; format: functional
[7] = Cytotoxicity against HDF cells assessed as cell growth inhibition at 15 uM incubated for 2 days by WST-1 analysis relative to control; format: toxicity, cell-based; details: human, HDF cells (NHDF, normal human dermal fibroblasts), time 2 day, read-out: GI
[8] = Metabolic stability in pooled human liver S9 fraction assessed as half life at 0.3 uM incubated for 120 mins in presence of NADPH regenerating system by LC-MS/MS analysis; format: ADME, subcellular
[9] = Metabolic stability in human liver microsomes assessed as half life; format: ADME, Microsome
[10] = Selectivity index, ratio of IC50 for inhibition of CLK2 (unknown origin) to IC50 for inhibition of CLK1 (unknown origin)
[11] = target: Dual specificity protein kinase CLK4 (Homo sapiens, UniProt Q9HAZ1); assay: Inhibition of CLK4 (unknown origin) in presence of ATP
[12] = target: Dual specificity tyrosine-phosphorylation-regulated kinase 1A (Homo sapiens, UniProt Q13627); assay: Inhibition of DYRK1A (unknown origin) in presence of ATP

Dual specificity protein kinase CLK4, sequence (Q9HAZ1 whole entry): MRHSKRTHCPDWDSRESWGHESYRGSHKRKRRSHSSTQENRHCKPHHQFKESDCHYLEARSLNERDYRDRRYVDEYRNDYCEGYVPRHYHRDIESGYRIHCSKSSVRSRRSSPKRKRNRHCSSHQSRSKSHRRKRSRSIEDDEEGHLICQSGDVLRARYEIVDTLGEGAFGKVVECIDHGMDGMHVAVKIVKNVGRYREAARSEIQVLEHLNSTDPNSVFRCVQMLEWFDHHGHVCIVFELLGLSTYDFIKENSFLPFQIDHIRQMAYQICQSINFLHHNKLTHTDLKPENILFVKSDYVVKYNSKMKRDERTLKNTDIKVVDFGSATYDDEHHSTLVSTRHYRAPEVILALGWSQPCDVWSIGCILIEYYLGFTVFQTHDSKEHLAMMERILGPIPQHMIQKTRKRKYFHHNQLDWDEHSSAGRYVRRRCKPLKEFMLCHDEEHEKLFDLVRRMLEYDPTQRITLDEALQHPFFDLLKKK

Structure (SMILES): C[C@@H](c1ccc(F)cc1)n1nnc2cnc3ccc(-c4ccc5ocnc5c4)cc3c21
Selectivity Index [3]: 69

Structure (SMILES): COc1ccc2sc(C(=O)N(C)N(C)c3cccc(N)c3)cc2c1
IC50 [2]: 97.4 nM
inhibition [1]: 51.2%

Structure (SMILES): COc1ccc2sc(C(=O)N(C)N(C)c3cccc([N+](=O)[O-])c3)cc2c1
inhibition [1]: 47.8%

Structure (SMILES): COc1ccc2sc(C(=O)N(C)Nc3cccc(Cl)c3)cc2c1
GI50 [4]: > 15 µM
Activity [5]: Non-Toxic

Structure (SMILES): COc1ccc2sc(C(=O)N(C)Cc3cc(F)cc(F)c3)cc2c1
GI50 [6]: 430 nM
GI50 [4]: 1.78 µM
inhibition at 48 h, 15 µM [7]: 9.16%
half-life at 0.3 µM [8]: 9.9 min
half-life [9]: 10 min

Structure (SMILES): COc1ccc2sc(C(=O)N(C)N(C)c3cccc(Br)n3)cc2c1
IC50 [2]: 12.9 nM
inhibition [1]: 77.2%

Structure (SMILES): CC(C)(C)c1ccc(C(=O)Nc2cn3cc(-c4cn[nH]c4)ccc3n2)cn1
Ratio IC50 [10]: 2.2

Structure (SMILES): COc1ccc2sc(C(=O)N(C)N(C)c3cc(Cl)cc(Cl)c3)cc2c1
IC50 [2]: 63.5 nM
inhibition [1]: 66.3%

Structure (SMILES): COc1ccc2sc(C(=O)NNc3cc(F)cc(F)c3)cc2c1
IC50 [11]: 21.1 nM
IC50 [12]: 201 nM
GI50 [4]: 8.9 µM
Activity [5]: Non-Toxic
half-life at 0.3 µM [8]: 56.9 min

Structure (SMILES): Cn1cc(-c2ccc3occ(-c4cccc(-c5ccncc5)c4)c3n2)cn1
Ratio IC50 [10]: 2.5
Selectivity Index [3]: 26.6

Structure (SMILES): CNc1ncc2cc3cnccc3c([N+](=O)[O-])c2n1
Selectivity Index [3]: 34

Structure (SMILES): COc1ccc2sc(C(=O)N(C)N(C)c3cccc(C#N)c3)cc2c1
IC50 [2]: 32.1 nM
inhibition [1]: 62.7%

Structure (SMILES): COc1ccc2sc(C(=O)NNc3ncccc3Cl)cc2c1
inhibition [1]: 0%

Structure (SMILES): COc1ccc2sc(C(=O)N(C)Cc3cccc(F)c3)cc2c1
Selectivity Index [3]: 48.6
half-life at 0.3 µM [8]: 17.2 min
half-life [9]: 10 min

Structure (SMILES): COc1ccc2sc(C(=O)NNc3cccc(Br)n3)cc2c1
GI50 [4]: 11.4 µM

Structure (SMILES): COc1ccc2sc(C(=O)NNc3cc(C(F)(F)F)cc(C(F)(F)F)c3)cc2c1
inhibition [1]: 22.3%

Structure (SMILES): COc1ccc2sc(C(=O)NNc3nc(OC)ncc3F)cc2c1
inhibition [1]: 0%

Structure (SMILES): COc1ccc2sc(C(=O)N(C)N(C)c3cccc(Br)c3)cc2c1
IC50 [2]: 73.8 nM
inhibition [1]: 68.1%

Structure (SMILES): COc1ccc2sc(C(=O)NC(=O)c3cc(Cl)ccc3OC)cc2c1
Selectivity Index [3]: 60
half-life at 0.3 µM [8]: 10.2 min
half-life [9]: 10 min

Structure (SMILES): COc1ccc2sc(C(=O)N(C)N(C)c3cc(F)cc(F)c3)cc2c1
IC50 [2]: 24.5 nM
GI50 [4]: > 15 µM
inhibition at 48 h, 15 µM [7]: 20.8%
inhibition [1]: 85%

The next lines start with results.

inhibition [1]: 12.8%
Structure (SMILES): COc1ccc2sc(C(=O)NNc3ccc(Cl)cc3)cc2c1

IC50 [2]: 73 nM
inhibition [1]: 63%
Structure (SMILES): COc1ccc2sc(C(=O)NNc3cccc(C(F)(F)F)c3)cc2c1

inhibition [1]: 7.2%
Structure (SMILES): COc1ccc2sc(C(=O)NNc3ccc([N+](=O)[O-])cc3)cc2c1

inhibition [1]: 0%
Structure (SMILES): COc1ccc2sc(C(=O)NNc3c(Cl)cccc3Cl)cc2c1

inhibition [1]: 6.2%
Structure (SMILES): COc1ccc2sc(C(=O)NNc3ccccc3Br)cc2c1

IC50 [2]: 85.6 nM
inhibition [1]: 68.4%
Structure (SMILES): COc1ccc2sc(C(=O)NNc3cccc([N+](=O)[O-])c3)cc2c1

inhibition [1]: 16.9%
Structure (SMILES): COc1ccc2sc(C(=O)NNc3ccc(I)cc3)cc2c1

inhibition [1]: 21.3%
Structure (SMILES): COc1ccc2sc(C(=O)NNc3ccc(Br)cc3)cc2c1

inhibition [1]: 3.8%
Structure (SMILES): COc1ccc2sc(C(=O)NNc3ccc(C(C)C)cc3)cc2c1

inhibition [1]: 5%
Structure (SMILES): COc1ccc2sc(C(=O)NNc3ccc(F)cc3)cc2c1

inhibition [1]: 49%
Structure (SMILES): COc1ccc2sc(C(=O)NNc3cccc(N)c3)cc2c1

inhibition [1]: 18.6%
Structure (SMILES): COc1ccc2sc(C(=O)NNc3ccccc3F)cc2c1

inhibition [1]: 27.9%
Structure (SMILES): COc1ccc2sc(C(=O)NNc3ccc(F)c(Cl)c3)cc2c1

inhibition [1]: 29.9%
Structure (SMILES): COc1ccc2sc(C(=O)NNc3cccc(C)c3)cc2c1

inhibition [1]: 17.7%
Structure (SMILES): COc1ccc2sc(C(=O)NNc3ccc(F)c(F)c3)cc2c1

IC50 [2]: 66.5 nM
inhibition [1]: 70.5%
Structure (SMILES): COc1ccc2sc(C(=O)NNc3cccc(F)c3)cc2c1

inhibition [1]: 30.4%
Structure (SMILES): COc1ccc2sc(C(=O)NNc3ccc(Cl)cc3Cl)cc2c1

inhibition [1]: 29.5%
Structure (SMILES): COc1ccc2sc(C(=O)NNc3ccccc3Cl)cc2c1

IC50 [2]: 37.7 nM
inhibition [1]: 84.6%
Structure (SMILES): COc1ccc2sc(C(=O)NNc3cccc(Br)c3)cc2c1

IC50 [2]: > 100 nM
inhibition [1]: 18.4%
Structure (SMILES): COc1ccc2sc(C(=O)NNc3ccc(C#N)cc3)cc2c1
GI50 [4]: > 15 µM
Activity [5]: Non-Toxic

IC50 [2]: 3.7 nM
inhibition [1]: 86.8%
Structure (SMILES): COc1cccc(NNC(=O)c2cc3cc(OC)ccc3s2)c1
GI50 [4]: > 15 µM
Activity [5]: Non-Toxic

inhibition [1]: 4.1%
Structure (SMILES): COc1ccc2sc(C(=O)NNc3ccc(F)cc3F)cc2c1

inhibition [1]: 28.9%
Structure (SMILES): COc1ccc2sc(C(=O)NNc3ccccn3)cc2c1

inhibition [1]: 0%
Structure (SMILES): COc1ccc2sc(C(=O)NNc3ccc(C)cc3C)cc2c1

inhibition [1]: 25.9%
Structure (SMILES): COc1ccc2sc(C(=O)NNc3ccc(C)c(Cl)c3)cc2c1

IC50 [11]: 13.4 nM
IC50 [12]: 191 nM
half-life at 0.3 µM [8]: 385 min
Structure (SMILES): COc1ccc2sc(C(=O)NNc3cc(Cl)cc(Cl)c3)cc2c1
GI50 [4]: 3.4 µM

inhibition [1]: 38.1%
Structure (SMILES): COc1ccc2sc(C(=O)NNc3ccccc3)cc2c1

IC50 [2]: 5.4 nM
inhibition [1]: 73.1%
Structure (SMILES): COc1ccc2sc(C(=O)NNc3cccc(C#N)c3)cc2c1
GI50 [4]: 10 µM
Activity [5]: Non-Toxic

inhibition [1]: 0%
Structure (SMILES): COc1ccc2sc(C(=O)NNc3ccc(C(F)(F)F)cc3)cc2c1
